Data reported in publication PMC6936879, “Inhibiting the copper efflux system in microbes as a novel approach for developing antibiotics” (PLoS ONE, 2019).

Legend:
E. coli (BL21) = experiment: Kirby-Bauer test (disc diffusion); format: cell-based; settings: 2 mm radius discs, LB petri dishes, 37 °C overnight
E. coli (BL21;DE3) [1] = experiment: E. coli growth rate experiment (O.D. 600 nm) under copper stress; format: cell-based; settings: M9 medium, 37 °C, value after 14 h incubation, 5 μM Cu(II) chloride in assay (sentence does not say with or without Cu(II)), mean ± SE, n = 5
Description: E. coli (BL21;DE3) growth rates were evaluated in 96-well microplates: in 200 μl of a poor medium comprising M9 medium. Incubation was for 16 h at 37°C with Copper(II) chloride (Sigma-Aldrich, St. Louis, MO, USA) at a concentration of 5 μM. Absorbance at 600 nm was measured every 30 min after stirring for 5 s in a 96-well plate reader (SPL Life Sciences, Gyeonggi, Korea). The buffer background was auto-subtracted. Each experiment was repeated five times under identical conditions.
Next, E. coli were grown in M9 medium for 16 h, and their growth rate was evaluated in the absence and presence of Cu(II) in the medium. In each sample, a different peptide was introduced to the medium, with the kanamycin as a positive control. […] Growth rate values for all peptides at various concentrations after 14 h of incubation are presented in Fig 3 (the growth rate curves are presented in Figs E to F in S1 File).
Fig 3 Effect of test peptides on the E. coli growth rate. E. coli cultures were grown as described in Methods. The growth rate values after a 14 h incubation in the medium in the presence (gray lines) and absence (black lines) of Cu(II). Concentrations of the test peptides: A. 50 μM, B. 75 μM, C. 100 μM, and D. 125 μM. *p < 0.05, MEAN ± SE, n = 5, a comparison between the values in the presence and absence of Cu(II). #p < 0.05, MEAN ± SE, n = 5, in the presence of Cu(II) and comparing between values of a buffer and peptide. t-test was used for the statistic evaluation.

E. coli (BL21;DE3) [2] = experiment: E. coli viability assay (LIVE/DEAD fluorescence imaging); format: cell-based; settings: peptide 125 μM; LIVE/DEAD staining, M9 medium, confocal imaging, cell counts with ImageJ; mean ± SE, n = 3
Description: E. coli (BL21;DE3) were dyed using the L7007 LIVE/DEAD Bacterial Viability kit (Molecular Probes, Eugene OR, USA); microbes were grown in M9 medium. Images were acquired on a Leica SP8 confocal microscope, running LASX acquisition software. The magnification consisted of a 63 X 1.4 NA objective. Microbes were counted using ImageJ software. Error calculations were based on three repetitions, with each experiment scanned at nine different tiles—all together, 27 repetitions.
Live/dead fluorescence cell imaging experiments were used to indicate bacterial viability when incubated with the peptides. This method also helped to determine whether the decrease in the growth rate described above resulted from deceleration in E. coli growth or its substantial death. E coli were grown to the late […] phase (according to the growth rate lines; Figs B to D in S1 File) in the presence of the peptides in poor medium (M9), which mostly resembles physiological conditions.[52–54] Glucose levels in the growth media were sufficient to prevent bacterial viability loss due to lack of nutrition, yet not too high to positively affect its viability. […] However, the effect of the peptides was not as substantial as the commercially available antibiotic kanamycin. […] 5 ± 4.3% and up to 45.3 ± 4.3% reduction at a concentration of 125 μM.
Fig 4 Effect of the test peptides on E. coli viability. […]

[3] = format: physicochemical; settings: chemical stability; peptides diluted to 150 mM solution in double-distilled water, incubated at 37 °C for 24 h; ESI-MS spectra before and after incubation
Description: We hypothesized that peptides would penetrate into E. coli and bind to CusB, interfere with its physiological dimerization, and thereby induce non-physiological structural changes or inhibit physiological structural changes in the transporter in response to extended levels of Cu(I). Thus, E. coli will lose its ability to be protected by copper-mediated oxidative stress, resulting in the death of the bacteria. Unlike CusB, CueO has homologs in human cells (Superoxide dismutase, SOD), and the main role in this study is to affect the CusCFBA efflux system regardless to CueO function, all measurements were carried out with an active CueO. First, we verified whether all ten peptides were stable under physiological conditions via incubation at 37°C for 24 h by ESI-MS analysis (Figs B to D in S1 File). Peptides 2–10 were stable under these given conditions, whereas peptide 1 was unstable.
Validation of the peptides stability using ESI-MS
In order to confirm the stability of the peptides, them were diluted to 150 mM solution in double-distilled
water, then incubated at 37 °C for 24 hr.
S2 before the incubation (Figure S2A) and after the incubation (Figure S2B). All peptides besides pep1
Fig B: ESI-MS. ESI-MS spectra for pep1 and pep2, left panel presents the spectra after peptide
(1 picture or pasted object on this page, not shown here)

[4] = disc solution 50 µM in 0.85% NaCl
[5] = disc solution 75 µM in 0.85% NaCl
[6] = disc solution 100 µM in 0.85% NaCl
[7] = disc solution 125 µM in 0.85% NaCl

## MDPV [pep9]
E. coli (BL21); [4]
  r, radius of bacteria killing formed over petri dishes by peptide-solution discs: 0 mm
E. coli (BL21); [5]
  r, radius of bacteria killing formed over petri dishes by peptide-solution discs: 0.5 mm
E. coli (BL21); [6]
  r, radius of bacteria killing formed over petri dishes by peptide-solution discs: 0.5 mm
E. coli (BL21); [7]
  r, radius of bacteria killing formed over petri dishes by peptide-solution discs: 1.5 mm

## VWVTA [pep7]
E. coli (BL21); [4]
  r, radius of bacteria killing formed over petri dishes by peptide-solution discs: 0 mm
E. coli (BL21); [5]
  r, radius of bacteria killing formed over petri dishes by peptide-solution discs: 0 mm
E. coli (BL21); [6]
  r, radius of bacteria killing formed over petri dishes by peptide-solution discs: 0 mm
E. coli (BL21); [7]
  r, radius of bacteria killing formed over petri dishes by peptide-solution discs: 0 mm

## IQGMD [pep5]
E. coli (BL21); [4]
  r, radius of bacteria killing formed over petri dishes by peptide-solution discs: 0 mm
E. coli (BL21); [5]
  r, radius of bacteria killing formed over petri dishes by peptide-solution discs: 0.5 mm
E. coli (BL21); [6]
  r, radius of bacteria killing formed over petri dishes by peptide-solution discs: 1 mm
E. coli (BL21); [7]
  r, radius of bacteria killing formed over petri dishes by peptide-solution discs: 2 mm
E. coli (BL21;DE3) [1]; peptide 50 μM
  decrease in O.D. (600 nm): 54.5 ± 4.2%
E. coli (BL21;DE3) [1]; peptide 100 μM
  decrease in O.D. (600 nm): 77.2 ± 6.4%
E. coli (BL21;DE3) [2]
  reduction of bacterial viability: 45.3 ± 4.3%

## NC[C@H]1O[C@H](O[C@H]2[C@H](O)[C@@H](O[C@H]3O[C@H](CO)[C@@H](O)[C@H](N)[C@H]3O)[C@H](N)C[C@@H]2N)[C@H](O)[C@@H](O)[C@@H]1O [Kanamycin, kanamycin, reference compound]
E. coli (BL21); [4]
  r, radius of bacteria killing formed over petri dishes by peptide-solution discs: 2.5 mm
E. coli (BL21); [5]
  r, radius of bacteria killing formed over petri dishes by peptide-solution discs: 2.5 mm
E. coli (BL21); [6]
  r, radius of bacteria killing formed over petri dishes by peptide-solution discs: 2.5 mm
E. coli (BL21); [7]
  r, radius of bacteria killing formed over petri dishes by peptide-solution discs: 2.5 mm

## DPVWVTA [pep4]
E. coli (BL21); [4]
  r, radius of bacteria killing formed over petri dishes by peptide-solution discs: 0 mm
E. coli (BL21); [5]
  r, radius of bacteria killing formed over petri dishes by peptide-solution discs: 0 mm
E. coli (BL21); [6]
  r, radius of bacteria killing formed over petri dishes by peptide-solution discs: 0 mm
E. coli (BL21); [7]
  r, radius of bacteria killing formed over petri dishes by peptide-solution discs: 0 mm

## GMDPVW [pep6]
E. coli (BL21); [4]
  r, radius of bacteria killing formed over petri dishes by peptide-solution discs: 0 mm
E. coli (BL21); [5]
  r, radius of bacteria killing formed over petri dishes by peptide-solution discs: 0 mm
E. coli (BL21); [6]
  r, radius of bacteria killing formed over petri dishes by peptide-solution discs: 0 mm
E. coli (BL21); [7]
  r, radius of bacteria killing formed over petri dishes by peptide-solution discs: 0 mm

## KIQGMDPVWVT [pep2]
E. coli (BL21); [4]
  r, radius of bacteria killing formed over petri dishes by peptide-solution discs: 0 mm
E. coli (BL21); [5]
  r, radius of bacteria killing formed over petri dishes by peptide-solution discs: 0 mm
E. coli (BL21); [6]
  r, radius of bacteria killing formed over petri dishes by peptide-solution discs: 0 mm
E. coli (BL21); [7]
  r, radius of bacteria killing formed over petri dishes by peptide-solution discs: 0 mm

## AKIQGMDPVWVTA [pep1, 13-amino acid parent peptide […] mimicking CusB residues 236-248]
[3]
  stability under physiological conditions (ESI-MS): unstable

## AKIQGM [pep3]
E. coli (BL21); [4]
  r, radius of bacteria killing formed over petri dishes by peptide-solution discs: 0 mm
E. coli (BL21); [5]
  r, radius of bacteria killing formed over petri dishes by peptide-solution discs: 0 mm
E. coli (BL21); [6]
  r, radius of bacteria killing formed over petri dishes by peptide-solution discs: 0 mm
E. coli (BL21); [7]
  r, radius of bacteria killing formed over petri dishes by peptide-solution discs: 0 mm

## PVWV [pep10]
E. coli (BL21); [4]
  r, radius of bacteria killing formed over petri dishes by peptide-solution discs: 0 mm
E. coli (BL21); [5]
  r, radius of bacteria killing formed over petri dishes by peptide-solution discs: 0 mm
E. coli (BL21); [6]
  r, radius of bacteria killing formed over petri dishes by peptide-solution discs: 0.5 mm
E. coli (BL21); [7]
  r, radius of bacteria killing formed over petri dishes by peptide-solution discs: 1.5 mm
